Data on twelve compounds can be found in patent publication US20060047171A1, “Catalytic hydrogenation of nitriles to produce capsaicinoid derivatives and amine compounds, and methods for purifying and obtaining the polymorphs thereof” (priority 2003, published 2006).

Entries after “also recorded” stand apart in the source; their conditions may differ. Where two headings read alike, the source gives them in different places.

The subject of data set [1] is tail flick response to radiant heat. The note with it: cited from earlier work; for Inhibition (%): mice.
Data set [2] concerns yeast induced hyperalgesia. Kind of data set: Randall-Selitto test. Format: in vivo, rat. The settings on record: rats, pain threshold of yeast-injected foot. The method, then: Randall-Selitto Test was carried out by following the method described in Arch. Int.
Male albino rats (120-170 g) of the Charles River Sprague-Dawley strain are used. Inflammation is produced by the injection of 0.1 mL of a 20% suspension of Brewer's yeast into the plantar surface of the rat's hind foot.
The pain threshold is measured as the pressure in mm Hg required to induce the desired response (a sharp audible squeak and/or struggle) when the pressure is applied to the foot. Air pressure from an air line is admitted through a needle valve to a 20 mL glass syringe and to a pressure gauge connected by a T-tube. The syringe is mounted with the plunger downward to which is connected a short bullet-shaped Teflon peg. The pressure is applied to the foot of the rat at the rate of 10 mmHg per second. Drug is given 2 hours after the yeast injection. Two hours after the drug administration, threshold response is determined.
The analgesic activity was determined in terms of the percentage of inhibition of response: Inhibition (%)=(TTG−TCG)/TCG×100, where TTG is the Threshold of Treated Group, and TCG is the Threshold of the Control Group.

The nature of data set [3]: Thermal stress experiments (DSC and XRPD), interconversion of forms. The data set is classed as physicochemical. The method, then: To further evaluate these observations, DSC thermograms were obtained for select compounds at various ramping rates to evaluate interconversion of forms, as shown in FIGS. 2(a)-2(c) and 3(a)-3(c). FIGS. 2(a)-2(c) show the conversion of Form I to Form II. The conversion is most readily observed in FIG. 2(a), as conversion was more difficult to observe at the faster ramp rates. […] Additionally, isothermal heating experiments were performed with evaluation by DSC and XRPD to confirm any change of form, as shown in FIGS. 2(d)-2(f) and 3(d)-(f) and Table 3. FIGS. 2(e) and 3(e) show the original XRPD for Forms I and IV, respectively, while FIGS. 2(f) and 3(f) show the XRPD of Form II, formed after thermal conversion.

A short description of data set [4]: Hygroscopicity by dynamic vapor sorption (DVS). The data set is classed as physicochemical. The note with it: for hygroscopicity (in words): DVS, conditions up to 90% RH. The method, then:
Dynamic vapor sorption analysis (DVS) was at times performed on the sample “as is”. Samples were placed in sample pan and underwent a 2-hour drying in a dry nitrogen stream. The samples were then analyzed under the following conditions:
Isothermal Sequence: • Adsorption: 10-90% RH; step size 10% • Desorption: 85-0% RH; step size 10%
Each RH point was obtained after the weight loss curve reached an asymptote. After the isotherm was complete, the sample was heated to 80° C. until the weight loss curve reached an asymptote or for 4 hours maximum.
Hygroscopicity studies were conducted by DVS on both the original Form I (FIG. 4) and the thermally converted Form II (FIG. 5) of DA-5018. […] In an attempt to further evaluate the physical form of the dihydrate, a second sample of DA-5018 was converted to the dihydrate by exposing the material to 85% RH overnight in the DVS instrument.

Data set [5] is described as follows: Solubility curve / metastable zone width in methanol/water (1:1.25, v/v). The data set is classed as physicochemical. Here is the method:
A standard procedure to determine the width of the metastable zone was used to determine the solubility curves of DA-5018 in methanol/water (1:1.25, v/v). In this procedure, DA-5018 (2.0 g) was suspended in 15 mL (7.5 vol) of methanol/water (1:1.25, v/v) and heated until all solids were dissolved (approximately 55° C.). The resulting solution was then very slowly cooled at a fixed rate of 0.2° C./min and the nucleation temperature recorded. The mixture was slowly reheated and the temperature of complete dissolution recorded. The solution was then iteratively diluted with a known volume of solvent and the nucleation as well as the dissolution points recorded at gradually lower concentrations to provide additional data points on the saturation curve as well as on the solubility curve. By definition, for a given concentration, the distance between the solubility curve and the saturation curve provides the metastable zone width (MSZW), in which crystal growth can be achieved upon careful seeding and controlled cooling, antisolvent addition, evaporation or pH adjustment, depending on the chosen crystallization conditions. Such a protocol is often crucial in maximizing crystal growth and curbing spontaneous, secondary nucleation that leads to uncontrolled crystallization.

Data set [6] can be described thus: Qualitative solubility of DA-5018 in common solvents. Format: physicochemical. Here is the method: In order to show which solvents or solvent/antisolvent combinations are appropriate for crystallization studies, the solubility of DA-5018 in twelve solvents was qualitatively evaluated on a 500 mg-scale. In these experiments, DA-5018 was suspended in 5 volumes of the appropriate solvent and stirred at ambient temperature, then incrementally heated until a complete solubilization was achieved.

In data set [7] the test system is adjuvant induced hyperalgesia. The note with it: 5 mg/Kg; rats; DA-5018 perorally two hours before tail-pinch testing; cited from earlier work.

In the case of “3-(3,4-Dimethylphenyl)acrylonitrile [Example 1]”, the “Inhibition (%)” value in data set [1] (0.5 mg/Kg s. c.) is 50%; in data set [1] (1.0 mg/Kg s. c.), 70%.

`CC(=O)Oc1ccccc1C(=O)O` [Aspirin]: the “Inhibition (%)” value in data set [2] (100 mg/Kg s. c.) was 80.1%; in data set [1] (100 mg/Kg p. o.), 0%.

`COc1cc(CC(=O)NCCCc2ccc(C)c(C)c2)ccc1OCCN` [Form IV, 2-[4-(2-aminoethoxy)-3-methoxyphenyl]-N-[3-(3,4-dimethylphenyl)propyl]acetamide]: in data set [3] (DSC at various ramping rates, melt), the “conversion of form under thermal stress / melt (in words)” value is listed as “conversion of Form IV to Form II”.

`COc1cc(CC(=O)NCCCc2ccc(C)c(C)c2)ccc1OCCN` [Form II, 2-[4-(2-aminoethoxy)-3-methoxyphenyl]-N-[3-(3,4-dimethylphenyl)propyl]acetamide]: the “moisture retention upon desorption (in words)” value in data set [4] (DVS desorption) was “did not retain moisture upon desorption”. Also, the “hygroscopicity (in words)” value in data set [4] was “non-hygroscopic; also recorded: no appreciable hygroscopicity”.

For the compound `CCCCCCCC/C=C\CCCCCCCC(=O)NCc1ccc(OCCN)c(OC)c1` [NE-21610], the “Inhibition (%)” value in data set [1] (200 mg/Kg p. o.) was 50%.

For `COc1cc(CC(=O)NCCCc2ccc(C)c(C)c2)ccc1OCCN` [DA-5018, 2-[4-(2-aminoethoxy)-3-methoxyphenyl]-N-[3-(3,4-dimethylphenyl)propyl]acetamide], the “Inhibition (%)” value in data set [2] (5 mg/Kg p. o.) turned out to be 247.4%. The “Nucleation Temperature (° C.)” value in data set [5] (2.0 g DA-5018 in 15 mL methanol/water (1:1.25, v/v), cooled at 0.2° C./min) is 39.1 °C; in data set [5] (2.0 g DA-5018 in 20 mL methanol/water (1:1.25, v/v)), 34.6 °C; in data set [5] (2.0 g DA-5018 in 25 mL methanol/water (1:1.25, v/v)), 34.5 °C; in data set [5] (2.0 g DA-5018 in 30 mL methanol/water (1:1.25, v/v)), 34.2 °C. Further, the “solubility (in words)” value in data set [6] (MEK, MIBK, EtOAc, IPAc and acetonitrile) was “sparingly soluble”; in data set [6] (methanol at 50° C.) it was “freely soluble”; in data set [6] (methyl tert-butyl ether (MTBE), even at reflux), “limited solubility”. The “DA-5018 Solubility Trend” value in data set [6] (ranking of solvents, 500 mg-scale, 5 volumes of solvent, ambient temperature then incrementally heated) is “Acetone >> Methanol > THF > Ethanol, 1-Propanol > 2-; also recorded: Propanol> MEK > MIBK > CH3CN, EtOAc, IPAc >> MTBE >>> Water”.

As for `CN1C(C(=O)Nc2ccccn2)=C(O)c2ccccc2S1(=O)=O` [Piroxicam], in data set [1] (100 mg/Kg p. o.), the “Inhibition (%)” value is listed as 0%.

With `COc1cc(CNC(=O)CCCC/C=C/C(C)C)ccc1O` [Capsaicin, trans-8-methyl-N-vanillyl-6-nonenamide], the “Inhibition (%)” value in data set [1] (25 mg/Kg, route not given) is 90%.

Regarding `COc1cc(CC(=O)NCCCc2ccc(C)c(C)c2)ccc1OCCN` [Form III, 2-[4-(2-aminoethoxy)-3-methoxyphenyl]-N-[3-(3,4-dimethylphenyl)propyl]acetamide], the “relative humidity to which the dihydrate is stable upon desorption” value in data set [4] (DVS desorption) is reported as no less than 30 % RH.

As for `COc1cc(CC(=O)NCCCc2ccc(C)c(C)c2)ccc1OCCN` [Form I, 2-[4-(2-aminoethoxy)-3-methoxyphenyl]-N-[3-(3,4-dimethylphenyl)propyl]acetamide], the “conversion of form under thermal conditions (in words)” value in data set [3] (10 minutes of isothermal heating near melting point, 105° C.) is reported as “convert to Form II”. Besides, in data set [4], the “hygroscopicity (in words)” value is “propensity to absorb moisture”. Further, the “relative humidity at which moisture is taken up” value in data set [4] (less crystalline, or amorphous, samples) is listed as “approximately 30 % RH”.

In the case of `CN1CC[C@]23c4c5ccc(O)c4O[C@H]2[C@@H](O)C=C[C@H]3[C@H]1C5` [Morphine], the “Inhibition (%)” value in data set [2] (3 mg/Kg s. c.) was found to be 391.7%. For the same compound, the “activity in the tail flick test (in words)” value in data set [1] (mouse, in vivo) is reported as “active”.

With `COc1ccc2cc([C@H](C)C(=O)O)ccc2c1` [Naproxen], the “Analgesic activity (%)” value in data set [7] was 28.6%.
